Reference: patent US20130115256A1, “METHODS FOR TREATING OR PREVENTING VASCULAR GRAFT FAILURE” (priority 2010, published 2013)

Columns and labels:
P38MAPK = assay: p38 MAPK radiometric kinase assay; format: biochemical; conditions: MMI-0100 100 μM; remaining kinase activity
From the text: A commercial radiometric assay service was used to test the specificity and potency of MMI-0100 ([…]; SEQ ID NO: 1) by measuring its half maximal inhibitory concentrations (IC50). This quantitative assay measures how much MK2 inhibitor (MMI-0100; […] (SEQ ID NO: 1)) is needed to inhibit 50% of a given biological process or component of a process (i.e., an enzyme, cell, or cell receptor). Specifically, in these assays, a positively charged substrate is phosphorylated with a radiolabeled phosphate group from an ATP if the kinase is not inhibited by an inhibitor peptide. The positively charged substrate then is attracted to a negatively charged filter membrane, quantified with a scintillation counter, and compared to a 100% activity control. […]
For the p38 MAPK (p38 Mitogen-Activated Protein Kinase) radiometric assay, 5-10 mU of p38 MAPK was incubated with 25 mM Tris pH 7.5, 0.02 mM EGTA, 0.33 mg/mL myelin basic protein (a substrath for p38 MAPK), 10 mM MgAcetate, and 10 μM of [y-^33P-ATP] in the final reaction volume of 25 μl. […] The washed P30 filtermat was dried and its radioactivity was measured by scintillation counter.
IC50 values for inhibitor peptides were determined using Millipore's IC50 Profiler Express service. […]

[1] = test system: mouse lung endothelial cells (MLEC); assay: NO analysis (nitrite chemiluminescence); format: cell-based; conditions: physiological doses; 24 hours
Experimental: To measure nitric oxide (NO) production, conditioned medium from mouse lung endothelial cells (MLEC) was examined at 24 hours after treatment with MMI-0100 ([…]; SEQ ID NO: 1). The medium was processed for the measurement of nitrite (NO2) by a NO-specific chemiluminescence analyzer (Sievers) as previously described (Muto, A. et al., J. Exp. Med., 2011, 208(3): 561-575, incorporated herein by reference in its entirety.).

[2] = test system: mouse lung endothelial cells (MLEC); assay: MCP-1 production immunoassay; format: cell-based; conditions: even at high doses
Experimental: Monocyte Chemotractic Protein-1 (MCP-1) production from mouse lung endothelial cells (MLEC) was analyzed using conditioned culture medium by Quantikine® Mouse CCL/JE/MCP-1 Immunoassay (R&D Systems) following the manufacturer's instructions. Briefly, the assay employs a quantitative sandwich enzyme immunoassay technique in which a monoclonal antibody specific for MCP-1 has been pre-coated onto a microplaste. Standards and samples are pipetted into the wells and any MCP-1 present is bound by the immobilized antibody. After washing away any unbound substances, an enzyme-linked polyclonal antibody specific for MCP-1 is added to the wells. Following a wash to remove any unbound antibody-enzyme reagent, a substrate solution is added to the wells and color develops in proportion to the amount of MCP-1 bound in the initial step. The color development is stopped and the intensity of the color is measured at 450 nm, with wavelength correction at 540 nm or 570 nm.

[3] = test system: mouse vein graft (intrathoracic inferior vena cava); assay: Mouse vein graft model; format: in vivo
Experimental: 12-week-old C57BL/6 wild type mice (Harlan) were used for all experiments, as previously described (Muto, A. et al., J. Exp. Med., 2011, 208(3): 561-575, incorporated herein by reference in its entirety). […] Prior to implantation, the vein was treated ex vivo with 100 μM of MMI-0100 ([…] (SEQ ID NO: 1)) peptide solution, or control PBS solution, for 20 minutes at room temperature.
To implant the vein graft, a midline incision was made in the abdomen of a recipient mouse and the infrarenal abdominal aorta was exposed. The abdominal aorta was temporarily occluded with atraumatic micro-clamps and a segment corresponding to the length of the vein graft was excised. The vein was sutured into the arterial circulation using 10-0 nylon in continuous fashion.
Vein grafts were followed postoperatively using the Vevo770® High-Resolution Imaging System (VisualSonics, Toronto, Canada), with weekly measurements of graft wall thickness. At 28 days after surgery, mice were sacrificed to allow explantation of the vein graft. Tissue was either frozen with RNA stabilization reagent (Qiagen) or explanted for paraffin embedding after circulatory flushing with ice-cold PBS followed by 4% paraformaldehyde perfusion-fixation. Vein graft wall thickness, lumen diameter, and outer wall diameter (elastic lamina) were measured in elastin-stained sections using computer morphometry (ImageJ).
Vein graft samples were fixed as described above and harvested for histology. Specimens were embedded in paraffin and cut in cross section (5 μm). Hematoxylin & Eosin, Masson trichrome, and van Gieson elastin staining were performed for all samples. Cells were cultured on gelatin-coated cover slips and fixed with methanol.
All sections were treated for antigen retrieval using 10 mmol/L citrate buffer (pH 6.0) prior to boiling or proteinase K (20 μg/ml) treatment, at room temperature, for 10-15 minutes. Immunohistochemical detection was performed using DAB as well as NovaRED® substrate (Vector). Sections were counterstained with Mayer's Hematoxylin.
The efficacy of MMI-0100 ([…]; SEQ ID NO: 1) in treating intimal hyperplasia in vivo was examined using a mouse model of vein bypass graft. […] The IVC was soaked in a 100 μM solution of MMI-0100 ([…]; SEQ ID NO: 1) at room temperature for 20 minutes prior to implantation into a host (C57BL/6J) mouse to bypass the infrarenal aorta. Five treated and six untreated veins were transplanted for a total of 11 transplanted animals. Vein graft wall thickness was determined using a Vevo7700 ultrasound imaging system at each week. […]

YARAAARQARAKALARQLGVAA [MMI-0100]
Percent Activity, P38MAPK (P38MAPK): 60%
Nitric oxide (NO) production [1]: not suppressed, and was even enhanced
MCP-1 production [2]: did not stimulate MCP-1 production
reduced wall thickness compared to control grafts, histological staining ([3]; 100 μM ex vivo 20 minutes, 4 weeks): 72%
F4/80-positive cells infiltrating into vein grafts ([3]; 100 μM ex vivo 20 minutes, 4 weeks, immunohistochemistry): fewer
vein graft wall thickness ratio by ultrasound ([3]; follow-up study, 100 μM ex vivo 20 minutes, 4 weeks (control grafts 4.7-fold)): 2.6 fold
grafted vessel wall thickness relative to the originally harvested IVC ([3]; vein soaked ex vivo in 100 μM for 20 minutes, 4 weeks after graft, ultrasound (control almost five times)): about 2.5 times
